These are literature values, as cited in patent publication US11103580B2, “Methods and systems for treating cell proliferation disorders” (Immunolight, LLC, priority 2007, dated 2021).

Like-named read-outs stand apart in the source and are kept apart here.

Data set [1] concerns leukocytes. To be noted: administered orally to a patient.
For data set [2] the following is noted: for Length of photosensitization: Table 3, known photosensitizers.
Data set [3] deals with tumors. To be noted: in vivo.
The subject of data set [4] is rapidly dividing tissue. The conditions noted are these: in vivo.
For data set [5] the following is noted: in excess.

Consider `COc1c2occc2cc2ccc(=O)oc12` [Compound 8-MOP, 8-methoxypsoralen], for which, in data set [1], the “inducing an apoptosis of leukocytes” value is on record as “effective at inducing an apoptosis of leukocytes” and the safety result was “safe”.

For `Oc1cccc(-c2c3nc(c(-c4cccc(O)c4)c4ccc([nH]4)c(-c4cccc(O)c4)c4nc(c(-c5cccc(O)c5)c5ccc2[nH]5)CC4)C=C3)c1` [Foscan, Tetra (m-hydroxyphenyl) chlorin], the Length of photosensitization in data set [2] was 2 weeks. Besides, in data set [2] (approximately), the “duration of skin photosensitivity” value is “approximately 2 weeks”.

Turning to `CC(=O)[O-].CC(=O)[O-].CCc1c(CC)c2cc3nc(cnc4cc(OCCOCCOCCOC)c(OCCOCCOCCOC)cc4ncc4nc(cc1[n-]2)C(CCCO)=C4C)C(C)=C3CCCO.O.[Lu+3]` [Lutetium texaphryin, Motexafin lutetium], the Length of photosensitization in data set [2] was 24 to 48 h. Also, the “duration of skin photosensitivity” value in data set [2] (clinical use) was 24 to 48 h. Besides, in data set [3], the “selectivity for tumors compared to normal tissues” value was “one of the greatest reported selectivities for tumors”. On to `C/C1=C2/[N-][C@H]([C@H](CC(N)=O)[C@@]2(C)CCC(=O)NC[C@@H](C)OP(=O)([O-])O[C@H]2[C@@H](O)[C@@H](n3cnc4cc(C)c(C)cc43)O[C@@H]2CO)[C@]2(C)N=C(/C(C)=C3N=C(/C=C4N=C1[C@@H](CCC(N)=O)C\4(C)C)[C@@H](CCC(N)=O)[C@]\3(C)CC(N)=O)[C@@H](CCC(N)=O)[C@]2(C)CC(N)=O.[CH3-].[Co+3]` [methylcobalamin], for which, in data set [4], the “uptake in rapidly dividing tissue” value is “increased uptake”. For Cobalt-57-cyanocobalamin, the “uptake in rapidly dividing tissue” value in data set [4] was “increased uptake”. For the compound Vitamin B12, the water solubility result is reported as “water soluble”. Moreover, in data set [5], the excretion entry is “excreted by gloinerular filtration”.
